The source of these data is ChEMBL document CHEMBL3853282, “(±)-Japonicols A-D, Acylphloroglucinol-Based Meroterpenoid Enantiomers with Anti-KSHV Activities from Hypericum japonicum” (J Nat Prod, 2016).

One may read the EC50 as the concentration giving half of the maximal effect. In general, CC50 refers to the concentration giving 50% cytotoxicity.

Bounds are passed on as bounds.

One data set relates to Human gammaherpesvirus 8. Kind of data set: Antiviral activity against Kaposi's sarcoma-associated herpesvirus infected in African green monkey Vero cells exposed to supernatant from 48 hrs compound treated human iSLK.219 cells infected with KSHV by GFP based microscopy. The format is functional, cell-based. To be noted: Human gammaherpesvirus 8, Vero.
A short description of data set [1]: Cytotoxicity against African green monkey Vero cells assessed as reduction in cell viability after 48 hrs by Alamar blue assay. To be noted: chlorocebus sabaeus. The format is toxicity, cell-based. In general terms: Resazurin is reduced to fluorescent resorufin, in cell work by metabolically active cells.
The nature of data set [2]: Selectivity index, ratio of CC50 for African green monkey Vero cells to EC50 for Kaposi's sarcoma-associated herpesvirus infected in African green monkey Vero cells. The format is toxicity, cell-based. Particulars: read-out: Ratio CC50/EC50.

Turning to `CC(C)C(=O)c1c(O)cc(O)c(C[C@@H]2[C@@H](C(C)(C)O)CC[C@]2(C)O)c1O`, the EC50 in the data set on Human gammaherpesvirus 8 was 158 µM. Besides, the CC50 at 48 h in data set [1] is > 300 µM. Moreover, the selectivity ratio in data set [2] is > 1.89.
In turn, `CC(C)C(=O)c1c(O)cc(O)c2c1OC(C)(C)[C@@H]1CC[C@@](C)(O)[C@H]1C2` registered an EC50 in the data set with Human gammaherpesvirus 8 of 39.8 µM. Moreover, the CC50 at 48 h in data set [1] was > 300 µM.
Take `CC(C)C(=O)c1c(O)cc(O)c2c1O[C@@]1(C)CC[C@@H](C(C)(C)O)[C@@H]2[C@H]1O`: in the data set with Human gammaherpesvirus 8, the concentration giving a half-maximal response (EC50) came out at 203 µM. The CC50 at 48 h in data set [1] is > 500 µM. The selectivity ratio in data set [2] was > 2.46.
As for `CC(C)C(=O)c1c(O)cc(O)c2c1OC(C)(C)[C@H]1CC[C@](C)(O)[C@@H]1C2`, the EC50 with Human gammaherpesvirus 8 worked out at 17.7 µM. Moreover, the CC50 at 48 h in data set [1] worked out at 221 µM.
With `CC(C)C(=O)c1c(O)cc(O)c(C[C@H]2[C@H](C(C)(C)O)CC[C@@]2(C)O)c1O`, a half-maximal effect in the data set on Human gammaherpesvirus 8 (EC50) was put at 40 µM. Moreover, in data set [1], the CC50 at 48 h was > 300 µM. In addition, the selectivity ratio in data set [2] is > 7.5.
`CC(C)C(=O)c1c(O)cc(O)c2c1O[C@]1(C)CC[C@H](C(C)(C)O)[C@H]2[C@@H]1O`: the EC50 in the data set with Human gammaherpesvirus 8 was 141 µM. Moreover, the CC50 at 48 h in data set [1] was > 500 µM. The selectivity ratio in data set [2] is > 3.55.
`CC(C)C(=O)c1c(O)cc(O)c2c1O[C@]1(C)CC[C@@H](C(C)(C)O)O[C@@H]1C2` came in with an EC50 with Human gammaherpesvirus 8 of 29.1 µM. The CC50 at 48 h in data set [1] was determined as 174 µM.
In the case of `CC(C)C(=O)c1c(O)cc(O)c2c1O[C@@]1(C)CC[C@H](C(C)(C)O)O[C@H]1C2`, a half-maximal response in the data set with Human gammaherpesvirus 8 (EC50) required 8.75 µM. Moreover, the CC50 at 48 h in data set [1] was determined as 141 µM.
